Results: patent publication US20260250247A1, “NOVEL INDOLINE DERIVATIVE AND USE THEREOF” (CK REGEON INC., priority 2023, published 2026)

Tests used:
[1] = target: CXXC5-Dvl interaction (PDZ domain of Dvl (dishevelled) protein / PTD-DBM-FITC); assay: CXXC5-Dvl binding inhibition, competition of PTD-DBM-FITC on plate-bound Dvl PDZ domain; details: purified Dvl PDZ domain 5 μg/mL, 10 μM PTD-DBM-FITC, compounds 0.001-100 μM, FITC fluorescence
Method: 5 μg/mL of the purified PDZ domain ofDvl (dishevelled) protein was attached to the bottom of a 96-well black immunoplate and left in a chamber at 4° C. for one day. The next day, each well was washed with PBS and 10 μM PTD-DBM-FITC was added. After incubation at room temperature for 3 hours, each well was washed with PBS. Each well was treated with the indoline derivatives at various concentrations (100, 10, 1, 0.1, 0.01, and 0.001 μM) in 100 μL of PBS. After washing with a buffer, fluorescence was measured by FITC using a microplate reader. A competition binding curve showing the degree of CXXC5-Dvl PPI inhibition was constructed using the GraphPad Prism software, and the IC50 value was calculated. […] CK090), and the intermediate compound 5-cyanoindirubin as controls.

[2] = test system: F4/80, CD11 b, α-SMA, collagen I, desmin in liver tissue; assay: Liver immunohistochemistry of inflammatory (F4/80, CD11 b) and fibrosis markers (α-SMA, collagen I, desmin) in MASH mice; assay type: in vivo, C57BL/6N mice; details: 25 mg/kg/day orally for 4 weeks; vs MASH group (vehicle)
Method: Five-week-old wild-type male C57BL/6N mice were purchased from Orient Bio Co., Ltd. They were allowed to acclimate to the laboratory environment for one week. Mice weighing 18-20 g on average were used in the experiment. To ensure ethical and scientific validity and efficient management of animal experiments, the experiment was conducted with the approval of the Institutional Review Board (IACUC-A-202205-1472-01) of Severance Hospital, Yonsei University College of Medicine.
The mice were divided into a normal group (NCD) and a high-fat diet group (HFD). The normal group (NCD) was fed a normal chow diet (NCD, Teklad Global 18% protein rodent diet), and the high-fat diet group (HFD) was fed a high-fat diet (HFD, D12492) in which fat accounted for 60% of the total calories, for 8 weeks. […]
The sections treated with the primary antibodies were washed with PBS and incubated with biotinylated anti-mouse (1:400; Dako) or anti-rabbit (1:400; Dako) secondary antibodies for 1 hour at room temperature. […] After the staining, images were taken and analyzed using a bright-field microscope (Nikon TE-2000U).
Through these experiments, the anti-inflammatory effect of the indoline derivatives of Examples 1 to 4 were analyzed in an animal model of nonalcoholic fatty liver disease. […]

N#Cc1ccc2c(c1)/C(=C1/Nc3ccccc3C1=O)C(=O)N2 [5-cyanoindirubin]
IC50 [1]: 11.1 µM | collagen production and α-SMA expression in liver (fibrosis markers) [2]: did not show any significant difference from the MASH group (vehicle) | expression of inflammatory markers F4/80 and CD11 b in liver [2]: no significant difference was observed from the MASH group (vehicle)
